Assay results published in ChEMBL document CHEMBL5360561, “Design, synthesis and biological evaluation of fluorinated selective estrogen receptor degraders (FSERDs) --- A promising strategy for advanced ER positive breast cancer” (Eur J Med Chem, 2023).
The source made the active and inactive calls. No cut-off for these calls is given here.

Legend:
[1] = test system: MCF7; assay: Induction of ER degradation in human MCF7 cells at 10 uM incubated for 24 hrs by Western blot analysis; assay type: cell-based
[2] = test system: Ishikawa; assay: Antiproliferative activity against human Ishikawa cells assessed as cell growth inhibition at 20 uM incubated for 3 days by MTT assay; assay type: functional; conditions: for inhibition: time 3.0 day; for inhibition at 20 µM: 72 h, time 3 day
[3] = test system: MCF7; assay: Antiproliferative activity against human MCF7 cells assessed as cell growth inhibition incubated for 5 days by MTT assay; assay type: functional, cell-based; conditions: MCF7, 120 h
[4] = Toxicity in Sprague-Dawley rat uterus assessed as increase in uterine wet weight at 0.1 mg/kg, po for 2 days consecutively; assay type: organism-based; conditions: in vivo, 48 h, time 2 day
[5] = test system: MCF7; assay: Induction of ER degradation in human MCF7 cells at 0.001 to 10 uM incubated for 24 hrs by Western blot analysis; assay type: cell-based; conditions: dose 0.001-10 µM
[6] = test system: MCF7; assay: Antitumor activity against human MCF7 cells xenografted in nude mouse assessed as tumor growth inhibition at 30 mg/kg,po for 30 days daily; assay type: functional, organism-based; conditions: time 30.0 day
[7] = Toxicity in mouse xenografted with human MCF7 cells assessed as morphological changes in heart at 30 mg/kg,po for 30 days daily by Hematoxylin and eosin staining based microscopy; assay type: organism-based; conditions: in vivo, 720 h, time 30 day
[8] = test system: MCF7; assay: Antitumor activity against human MCF7 cells xenografted in nude mouse assessed as reduction in Ki67 expression at 30 mg/kg,po for 30 days daily by immunohistochemical analysis; assay type: functional, organism-based; conditions: time 30.0 day
[9] = Toxicity in mouse xenografted with human MCF7 cells assessed as morphological changes in liver at 30 mg/kg,po for 30 days daily by Hematoxylin and eosin staining based microscopy; assay type: organism-based; conditions: in vivo, 720 h, time 30 day
[10] = Toxicity in Sprague-Dawley rat uterus assessed as change in uterine wet weight at 30 mg/kg, po for 2 days consecutively; assay type: organism-based; conditions: in vivo, 48 h, time 2 day
[11] = test system: Mus musculus; assay: In vivo ER degradation in mouse xenografted with human MCF7 cells assessed as reduction in ER expression level in tumor at 30 mg/kg,po for 30 days daily by […]; assay type: functional, organism-based; conditions: time 30.0 day
[12] = test system: MCF7; assay: Induction of ER degradation in human MCF7 cells transfected with ERE-luciferase plasmid assessed as decrease in estradiol induced ERE-luciferase activity by measuring luminescence at 10 uM incubated for 24 hrs by luciferase assay; assay type: cell-based
[13] = test system: MCF7; assay: Induction of ER degradation in human MCF7 cells at 10 uM incubated for 24 hrs by DAPI staining based immunofluorescence analysis; assay type: cell-based
[14] = test system: MCF7; assay: Induction of cell cycle arrest in human MCF7 cells assessed as accumulation at G0/G1 phase at 10 uM incubated for 24 hrs by flow cytometry (Rvb= 46.53 +/- 0.44%); assay type: functional
[15] = test system: MCF7; assay: Induction of ER degradation in Estradiol stimulated human MCF7 cells assessed as decrease in GREB1 mRNA expression level at 1 to 10 uM incubated for 24 hrs by RT-qPCR analysis; assay type: cell-based; conditions: dose 1-10 µM
[16] = Toxicity in mouse xenografted with human MCF7 cells assessed as morphological changes in spleen at 30 mg/kg,po for 30 days daily by Hematoxylin and eosin staining based microscopy; assay type: organism-based; conditions: in vivo, 720 h, time 30 day
[17] = test system: MCF7; assay: Induction of ER degradation in Estradiol stimulated human MCF7 cells assessed as decrease in TFF1 gene expression level at 1 to 10 uM incubated for 24 hrs by RT-qPCR analysis; assay type: cell-based; conditions: dose 1-10 µM
[18] = Toxicity in mouse xenografted with human MCF7 cells assessed as morphological changes in kidney at 30 mg/kg,po for 30 days daily by Hematoxylin and eosin staining based microscopy; assay type: organism-based; conditions: in vivo, 720 h, time 30 day
[19] = test system: MCF7; assay: Induction of ER degradation in Estradiol stimulated human MCF7 cells assessed as decrease in PGR gene expression level at 1 to 10 uM incubated for 24 hrs by RT-qPCR analysis; assay type: cell-based; conditions: dose 1-10 µM
[20] = Toxicity in mouse xenografted with human MCF7 cells assessed as body weight loss at 30 mg/kg,po for 30 days daily; assay type: organism-based; conditions: in vivo, 720 h, time 30 day
[21] = test system: Mus musculus; assay: In vivo ER degradation in mouse xenografted with human MCF7 cells assessed as reduction in PR expression level in tumor at 30 mg/kg,po for 30 days daily by […]; assay type: functional, organism-based; conditions: time 30.0 day

Row | SMILES | Activity [1] | IC50 [3] [nM] | inhibition at 20 µM [2] [%] | also measured
1 | Cc1cc(C)cc(C(=O)c2sc3cc(F)ccc3c2Oc2ccc(/C=C/C(=O)O)cc2)c1 | Active | 2590 | – | inhibition [2]: inactive
2 | O=C(O)/C=C/c1ccc(Oc2c(C(=O)c3cccc4ccccc34)sc3cc(F)ccc23)cc1 | Active | 8570 | 8 | –
3 | O=C(O)/C=C/c1ccc(Oc2c(C(=O)c3ccc4occc4c3)sc3cc(F)ccc23)cc1 | Active | 1880 | 12 | –
4 | O=C(O)/C=C/c1ccc(Oc2c(C(=O)c3ccc4ccccc4c3)sc3cc(F)ccc23)cc1 | Active | 4740 | 25 | –
5 | O=C(O)/C=C/c1ccc(Oc2c(C(=O)c3ccc4ccncc4c3)sc3cc(F)ccc23)cc1 | Active | > 20000 | 36 | –
6 | Cc1cccc(C)c1C(=O)c1sc2cc(F)ccc2c1Oc1ccc(/C=C/C(=O)O)cc1 | Active | 280 | – | inhibition [2]: inactive
7 | C[C@]12CC[C@@H]3c4ccc(O)cc4CC[C@H]3[C@@H]1CC[C@@H]2O [ESTRADIOL] | – | – | – | Activity [4]: Toxic
8 | O=C(O)/C=C/c1ccc(Oc2c(C(=O)c3cccc(F)c3)sc3cc(F)ccc23)cc1 | Active | 5830 | 9 | –
9 | O=C(O)/C=C/c1ccc(Oc2c(C(=O)c3ccc(OC(F)(F)F)cc3)sc3cc(F)ccc23)cc1 | Active | 1440 | 18 | –
10 | O=C(O)/C=C/c1ccc(-c2ccc(Oc3c(C(=O)c4ccccc4)sc4cc(F)ccc34)cc2)cc1 | Active | 9910 | 8 | –
11 | CC(C)c1ccccc1C(=O)c1sc2cc(F)ccc2c1Oc1ccc(/C=C/C(=O)O)cc1 | Active | 320 | – | inhibition [2]: inactive
12 | Cc1cc(Oc2c(C(=O)c3ccccc3)sc3cc(F)ccc23)ccc1/C=C/C(=O)O | Active | 670 | 19 | –
13 | Cc1ccc(C(=O)c2sc3cc(F)ccc3c2Oc2ccc(/C=C/C(=O)O)cc2)c(C)c1 | Active | 200 | 13 | Activity [5]: Dose-Dependent Effect; Activity [6]: Active; Activity [7]: Non-Toxic; Activity [8]: Active; Activity [9]: Non-Toxic; Activity [10]: Non-Toxic; Activity [11]: Active; Activity [12]: Active; Activity [13]: Active; Activity [14]: 57.36%; Activity [15]: Active; Activity [16]: Non-Toxic; Activity [17]: Active; Activity [18]: Non-Toxic; Activity [19]: Active; Activity [20]: Non-Toxic; Activity [21]: Active
